# Tested on: S. epidermidis (ATCC 35984) 24h-mature biofilm
# Experiment: S. epidermidis 24h-mature biofilm, crystal violet biomass
# Assay type: cell-based, Staphylococcus epidermidis
# Conditions: 80 μM; 24 h treatment of 24-hour mature biofilm
# Procedure: In another experiment we let adhere 0.5×10^8 CFU/ml S. epidermidis cells for 4 hr and let the biofilm form for additional 24 hr in presence of 0.25% glucose, at this point we treated the biofilm with different concentrations of molecule 2329 for 24 h in TSB with 0.25% glucose and determined the biofilm biomass using the crystal violet staining.
# For biofilm analysis, we first washed the biofilm 3 times with NaCl 0.9% to eliminate all planktonic bacteria, before incubation with a staining Crystal Violet 1% solution in distilled H2O (dH2O).
# Wells are washed 3 times with dH2O to eliminate unbound crystal violet. 400 μl Acetic Acid 10% is then added and incubated at RT for 10 min. Absorbance is measured in triplicate at 570 nm, reflecting total biomass of the biofilm.
structure (smiles),measurement,value
"CCCSc1nc(N[C@@H]2C[C@H]2c2ccc(F)c(F)c2)c2ncn(C)c2n1 [Molecule 2329, N-((1R,2S)-2-(3,4-difluorophenyl)cyclopropyl)-9-methyl-2-(propylthio)-9H-purin-6-amine]","mature biofilm biomass (crystal violet, absorbance 570 nm)",could reduce

# — US11434241B2, “Pyrimidine derivatives for prevention and treatment of bacterial infections” (UNIVERSITE DE LIEGE, priority 2018, dated 2022)
